# Active and inactive are the calls of the source. The calls are words filed in the database; no cut-off is given here.
# How the values were obtained:
# Type in all cases: nucleic-acid assay
# [1] = system: Quadruplex DNA; test: Binding affinity to HT G-quadruplex DNA (unknown origin) assessed as stabilization of parallel G-quadruplex structure at 10 to 70 uM by CD spectroscopic method
# [2] = system: Quadruplex DNA; test: Binding affinity to HT G-quadruplex DNA (unknown origin) measured after 5 mins by UV-visible absorption titration method
# [3] = system: Quadruplex DNA; test: Binding affinity to HT4-2 template G-quadruplex DNA (unknown origin) assessed as inhibition of polymerase progression at 2nt separation site at 20 to 100 uM using FAM-lablled primer P18 and dNTPs measured after 30 mins by phosphorimaging based taq polymerase stop assay
# [4] = system: Quadruplex DNA; test: Binding affinity to HT4-2 template G-quadruplex DNA (unknown origin) at 55 degC
# [5] = system: Quadruplex DNA; test: Binding affinity to HT4-2-Mut1 template G-quadruplex DNA (unknown origin) assessed as inhibition of polymerase progression at 2nt separation site at 20 to 100 uM using FAM-lablled primer P18 and dNTPs measured after 30 mins by phosphorimaging based taq polymerase stop assay
# [6] = system: Quadruplex DNA; test: Binding affinity to HT4-2-Mut2 template G-quadruplex DNA (unknown origin) assessed as inhibition of polymerase progression at 2nt separation site at 20 to 100 uM using FAM-lablled primer P18 and dNTPs measured after 30 mins by phosphorimaging based taq polymerase stop assay
# [7] = system: Quadruplex DNA; test: Binding affinity to HT4-2-Mut3 template G-quadruplex DNA (unknown origin) assessed as inhibition of polymerase progression at 2nt separation site at 20 to 100 uM using FAM-lablled primer P18 and dNTPs measured after 30 mins by phosphorimaging based taq polymerase stop assay
# [8] = system: Quadruplex DNA; test: Binding affinity to HT4-2 template G-quadruplex DNA (unknown origin) assessed as primer extension stopped right before TTAGGG-repeating at 20 to 100 uM using FAM-lablled primer P18 and dNTPs measured after 30 mins in presence of marker 2 by phosphorimaging based taq polymerase stop assay
structure (smiles),measurement,setting,value
[N-]=[N+]=NCCCC[N+]1(CCOc2ccc(/N=N/c3ccc(OCC[N+]4(CCCCN=[N+]=[N-])CCCCC4)cc3)cc2)CCCCC1,Activity,[1],Active
same,K,[2],2.1 ×10⁵ /M
same,inhibition,[3],Active
same,Activity,[4],inactive
same,inhibition,[5],inactive
same,inhibition,[6],inactive
same,inhibition,[7],inactive
same,Activity,[8],Active

# — ChEMBL document CHEMBL4339206, “Specific stabilization of DNA G-quadruplex structures with a chemically modified complementary probe” (Bioorg Med Chem, 2019)
